“And” between values parts separate entries of the source, which are not always exact repeats. Identical values can stand only once. Ends that are not written are not given here.
Experiment: Retention of peptides P1-1 to P1-5 on a polypropylene sheet after successive washes
Assay type: physicochemical
Conditions: after first wash scan; unwashed control array
Protocol: Further experiments were undertaken to investigate the retention of peptides P1-1 to, P1-5 and P2-1 to P2-2, shown in Table 3, on a polypropylene surface.
The polypropylene sheet was wiped with 50% (v/v) aqueous acetonitrile prior to use.
8× replicate 20 nl volumes of 1 μM peptides P1-1 to P1-5 and P2-1 to P2-2 and TAMRA in dimethyl sulphoxide (DMSO) were dispensed at 1 mm spacing to a 3″×1″×1 mm polypropylene sheet using the Piezorray system (PerkinElmer LAS). 500 drops were pre-dispensed using the ‘side shoot’ option and the tuning was set to 72V for 30 μs.
The slide was imaged at 10 μm resolution on a Typhoon Trio Plus variable mode imager (Amersham Biosciences) with the green (532 nm) laser and the 580 BP 30 filter at a PMT voltage of 600 V and at normal sensitivity. The scan height was set at the platen and the samples were pressed during scanning. The fluorescence image was analysed using ImageQuant TL v2003.03 (Amersham Biosciences).
The lower half of the slide (containing the test array) was then washed in 100 ml of 1 M NaCl containing 10 mM tris-HCl (pH 8.0) for one minute and were re-scanned as described above.
The same half of the slide was then washed for a second time in 100 ml of 1 M NaCl containing 10 mM tris-HCl (pH 8.0) for 30 minutes and re-scanned as described above.
The same half of the slide was then washed for a third time in 100 ml of water for 30 minutes and re-scanned as described above.

**Q.** With “TAMRA-F-G-F-S-F-A-F-D-F-G-F ({TAMRA}-FGFSFAFDFGF) [Peptide P1-1]” as the substance, how does the “Average fluorescence, control array” value read?
**A.** 244,263,013

Same assay, conditions: after first wash scan; unwashed control array; slide background subtracted

**Q.** With “TAMRA-F-G-F-S-F-A-F-D-F-G-F ({TAMRA}-FGFSFAFDFGF) [Peptide P1-1]” as the substance, how does the “Corrected signal, control array” value read?
**A.** 97,571,341

Same assay, conditions: after first wash: 1 M NaCl/10 mM tris-HCl (pH 8.0), one minute

**Q.** Which “Average fluorescence, test array” value does the source give for “TAMRA-F-G-F-S-F-A-F-D-F-G-F ({TAMRA}-FGFSFAFDFGF) [Peptide P1-1]” here?
**A.** 157,624,537

Same assay, conditions: after first wash: 1 M NaCl/10 mM tris-HCl (pH 8.0), one minute; background subtracted

**Q.** For “TAMRA-F-G-F-S-F-A-F-D-F-G-F ({TAMRA}-FGFSFAFDFGF) [Peptide P1-1]”, which “Corrected signal, test array” value is on record?
**A.** 3,126,578

Same assay, conditions: after second wash scan; unwashed control array

**Q.** With “TAMRA-F-G-F-S-F-A-F-D-F-G-F ({TAMRA}-FGFSFAFDFGF) [Peptide P1-1]” as the substance, how does the “Average fluorescence, control array” value read?
**A.** 225,863,933

Same assay, conditions: after second wash scan; unwashed control array; background subtracted

**Q.** Which “Corrected signal, control array” value does the source give for “TAMRA-F-G-F-S-F-A-F-D-F-G-F ({TAMRA}-FGFSFAFDFGF) [Peptide P1-1]” here?
**A.** 88,584,083

Same assay, conditions: after second wash: 1 M NaCl/10 mM tris-HCl (pH 8.0), 30 minutes

**Q.** With “TAMRA-F-G-F-S-F-A-F-D-F-G-F ({TAMRA}-FGFSFAFDFGF) [Peptide P1-1]” as the substance, how does the “Average fluorescence, test array” value read?
**A.** 127,216,792

Same assay, conditions: after second wash: 1 M NaCl/10 mM tris-HCl (pH 8.0), 30 minutes; background subtracted

**Q.** Which “Corrected signal, test array” value does the source give for “TAMRA-F-G-F-S-F-A-F-D-F-G-F ({TAMRA}-FGFSFAFDFGF) [Peptide P1-1]” here?
**A.** −5,230,512

Same assay, conditions: after third wash scan; unwashed control array

**Q.** For “TAMRA-F-G-F-S-F-A-F-D-F-G-F ({TAMRA}-FGFSFAFDFGF) [Peptide P1-1]”, which “Average fluorescence, control array” value is on record?
**A.** 218,342,010

Same assay, conditions: after third wash scan; unwashed control array; background subtracted

**Q.** With “TAMRA-F-G-F-S-F-A-F-D-F-G-F ({TAMRA}-FGFSFAFDFGF) [Peptide P1-1]” as the substance, how does the “Corrected signal, control array” value read?
**A.** 84,434,769

Same assay, conditions: after third wash: water, 30 minutes

**Q.** Which “Average fluorescence, test array” value does the source give for “TAMRA-F-G-F-S-F-A-F-D-F-G-F ({TAMRA}-FGFSFAFDFGF) [Peptide P1-1]” here?
**A.** 124,941,941

Same assay, conditions: after third wash: water, 30 minutes; background subtracted

**Q.** For “TAMRA-F-G-F-S-F-A-F-D-F-G-F ({TAMRA}-FGFSFAFDFGF) [Peptide P1-1]”, which “Corrected signal, test array” value is on record?
**A.** 644,716

Experiment: Retention of peptides in V-bottomed polypropylene wells
Assay type: physicochemical
Conditions: V-bottom wells; 500V scan
Protocol: (§1) The retention of peptides 2DOS-1 to 2DOS-16 (see above) on polypropylene wells of different geometries was investigated:
(§2) 10 mM tris-HCl (pH 8.0) in 50% (v/v) aqueous acetonitrile was used as the solvent for the peptides and for TAMRA.
(§3) 1 μl aliquots of 10 μM peptides 2DOS-1 to 2DOS-16 and 10 μM TAMRA were pipetted into the wells of a Costar V-bottomed polypropylene microtitre plate and a Greiner flat-bottomed polypropylene microtitre plate according to the following scheme as shown in FIG. 22:
(§4) The peptide samples were allowed to evaporate to dryness in the dark.
(§5) The peptide samples in the top two rows of the microtitre plates were then incubated for 15′ minutes at room temperature in 250 μl of 1 M NaCl in 10 mM tris-HCl (pH 8.0).
(§6) After incubation, the wash buffer was pipetted up and down eight times in the well before removing the supernatant.
(§7) The washed and untreated peptide samples were then resuspended in 50 μl of 10 mM tris-HCl (pH 8.0) in 50% (v/v) aqueous acetonitrile.
(§8) The microtitre plates were imaged at 200 μm resolution on a Typhoon Trio Plus variable mode imager (Amersham Biosciences) with the green (532 nm) laser and the 580 BP 30 filter at the PMT voltages indicated below and at normal sensitivity. The scan height was set at the platen and the sample was pressed during, scanning.
(§9) The fluorescence images were analysed using ImageQuant TL v2003.03 (Amersham Biosciences).

**Q.** For TAMRA [reference compound], which Percent retention is on record?
**A.** 5% and 4% and 6%

Same assay, conditions: V-bottom wells; 500V scan; unwashed

**Q.** Which Untreated fluorescence does the source give for TAMRA [reference compound] here?
**A.** 12,610,993 and 15,392,751 and 17,471,866

Same assay, conditions: V-bottom wells; 500V scan; washed 15 minutes in 1 M NaCl in 10 mM tris-HCl (pH 8.0)

**Q.** Which Retained fluorescence does the source give for TAMRA [reference compound] here?
**A.** 640,684 and 686,863 and 998,320

Experiment: Retention of peptides in flat-bottomed polypropylene wells
Assay type: physicochemical
Conditions: flat-bottom wells; 500V scan; unwashed
Protocol: as §1, §2, §3, §4, §5, §6, §7, §8, §9

**Q.** With TAMRA [reference compound] as the substance, how does the Untreated fluorescence read?
**A.** 18,396,859 and 20,662,891 and 20,649,165

Experiment: Retention of peptides on Costar polypropylene V-bottom wells
Assay type: physicochemical
Conditions: 400V scan
Protocol: (§10) The retention of peptides 2DOS-1 to 2DOS-16 (see above) on polypropylene and polystyrene surfaces was compared:
(§11) 5 mM tris-HCl (pH 8.0) in 75% (v/v) aqueous acetonitrile was used as the solvent for the peptides and for TAMRA.
(§12) 20 μl aliquots of 5 μM peptides 2DOS-1 to 2DOS-16 and 5 μM TAMRA were pipetted into the wells of a Costar V-bottomed polypropylene microtitre plate, a Greiner V-bottomed polypropylene microtitre plate, and a Greiner V-bottomed polystyrene microtitre plate according to the scheme shown in FIG. 26:
as §4
(§13) The peptide samples in the top two rows of the microtitre plates were then incubated for 15 minutes at room temperature in 250 μl of 1 M NaCl in 10 mM tris-HCl (pH 8.0).
as §6, §7
as §8, with “+3 mm” for “the platen”, “during” for “during,”
as §9

**Q.** Which Percent retention does the source give for TAMRA [reference compound] here?
**A.** 3%

Same assay, conditions: 400V scan, unwashed

**Q.** With TAMRA [reference compound] as the substance, how does the Untreated fluorescence read?
**A.** 11,786,211

Same assay, conditions: 400V scan, washed 15 minutes in 1 M NaCl in 10 mM tris-HCl (pH 8.0)

**Q.** For TAMRA [reference compound], which Retained fluorescence is on record?
**A.** 386,629

Experiment: Retention of peptides on Greiner polypropylene V-bottom wells
Assay type: physicochemical
Conditions: 400V scan
Protocol: as §10, §11, §12, §4, §13, §6, §7
as §8, with “+3 mm” for “the platen”, “during” for “during,”
as §9

**Q.** For TAMRA [reference compound], which Percent retention is on record?
**A.** 1%

Same assay, conditions: 400V scan, unwashed

**Q.** With TAMRA [reference compound] as the substance, how does the Untreated fluorescence read?
**A.** 6,199,206

Same assay, conditions: 400V scan, washed 15 minutes in 1 M NaCl in 10 mM tris-HCl (pH 8.0)

**Q.** For TAMRA [reference compound], which Retained fluorescence is on record?
**A.** 64,916

Experiment: Retention of peptides on Greiner polystyrene V-bottom wells
Assay type: physicochemical
Conditions: 400V scan
Protocol: as §10, §11, §12, §4, §13, §6, §7
as §8, with “+3 mm” for “the platen”, “during” for “during,”
as §9

**Q.** Which Percent retention does the source give for TAMRA [reference compound] here?
**A.** 1%

Same assay, conditions: 400V scan, unwashed

**Q.** With TAMRA [reference compound] as the substance, how does the Untreated fluorescence read?
**A.** 1,051,154

Same assay, conditions: 400V scan, washed 15 minutes in 1 M NaCl in 10 mM tris-HCl (pH 8.0)

**Q.** For TAMRA [reference compound], which Retained fluorescence is on record?
**A.** 10,004
